Measurements taken from patent publication US9403873B2, “Peptides targeting receptor activator of nuclear factor-κB (RANK) and their applications” (UNIVERSITE DE NANTES, priority 2011, dated 2016).
Ends that are not written are not given here. (PEG)5 = linear (PEG)5 polyethylene glycol chain at N-terminal amino acid

Columns and labels:
hRANK = biological target: T1, hRANK (Homo sapiens, UniProt Q9Y6Q6); assay: Surface plasmon resonance (Biacore) binding to immobilized RANK-Fc; conditions: SPR, 1:1 Langmuir model
T1 construct: For NMR experiments with soluble RANK receptor-Fc (R&D Systems); purchased R&D Systems
T1 sequence (Q9Y6Q6 30-212 limits assumed): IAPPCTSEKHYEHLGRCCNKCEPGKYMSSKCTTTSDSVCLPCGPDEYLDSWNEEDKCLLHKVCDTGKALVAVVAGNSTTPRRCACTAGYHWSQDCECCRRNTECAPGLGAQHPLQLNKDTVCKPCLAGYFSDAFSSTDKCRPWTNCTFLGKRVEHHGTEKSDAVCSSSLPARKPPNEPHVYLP
Protocol: Biosensor experiments were carried out on a BIAcore 3000 instrument (BIAcore) as published previously (Baud′Huin et al. 2009). Recombinant purified RANKL (2 μg/mL in 5 mM maleate, pH 5.75) or RANK-Fc carrier-free (5 μg/mL in sodium acetate buffer, pH 5.0) were covalently immobilized to the dextran matrix of a CM5 sensor chip (BIAcore) at a flow rate of 5 μL/min. Immobilization levels ranging from 400 to 3000 Response Units (RU) for RANKL or 5000 RU for RANK were obtained. Binding assays were performed at 25° C. in 10 mM Hepes buffer, pH 7.4. The association phase was 180 seconds followed by a dissociation phase in the same buffer. Polypeptides binding studies to RANK or RANKL were determined using single cycle kinetics, starting with 100 μM of the polypeptide of interest followed by 2-fold serial dilutions (ranging from 100 to 0.78 μM). The sensorgrams were fitted to calculate the equilibrium-dissociation constants using the Langmuir 1:1 model with BiaEval 4.1 software (BIAcore). RANK-Fc CF, RANKL and OPG carrier-free were obtained from R&D Systems (Minneapolis, Minn., USA).

[1] = tested on: ovariectomized C57BL/6 mice; assay: Ovariectomy-induced bone loss in mice, micro-CT of tibiae and L4 vertebrae; format: in vivo, mouse; conditions: 35 days
Description: Eight-week-old ovariectomized (OVX) female C57BL6 and non-ovariectomized control mice were purchased from Janvier (Le Genest Saint Ilsle, France). Mice were housed under pathogen-free conditions at the Experimental Therapy Unit (Faculty of Medicine, University of Nantes, France), and animal care and experimental protocols were approved by the French Ministry of Research and were done in accordance with the institutional guidelines of the French Ethical Committee and under the supervision of authorized investigators. After recovery from OVX surgery for 7 days and acclimation, the mice were randomly divided into treatment groups receiving daily subcutaneous injections of a peptide and a control group receiving daily injections of the vehicle (PBS) only. Non-ovariectomized or sham-operated mice were included in the studies as healthy controls. Three experimental protocols were established. Protocol 1: Ovariectomized mice received daily s.c. injections of 10 mg/kg body weight Pep8 (Pep8, n=8) or vehicle only (OVX, n=8). Non-ovariectomized (NOV, n=8) mice served as normal controls. Protocol 2: Ovariectomized mice were randomly divided into four groups (n=8), receiving daily treatments with pegylated Pep8 (Pep8-NPEG5) at 10 mg/kg or 2.5 mg/kg, or unpegylated Pep8 at a dose of 10 mg/kg/d, or the vehicle only. Sham-operated mice (n=5) served as healthy controls. Protocol 3: Ovariectomized mice receiving daily treatments with pegylated Pep8 (Pep8-NPEG8) at 10 mg/kg or 2.5 mg/kg, as described before, or unpegylated Pep8 at a lower dose of 2.5 mg/kg/d, or the vehicle only. Sham-operated mice (n=8) served as healthy controls.
During the experimental period, the body weight of the mice was monitored. […] After treatment for five weeks, mice were anesthetized with isoflurane (2%, 1 L/min) and sacrificed by cervical dislocation. Lumbar vertebrae and tibiae were collected for micro-CT analysis and stored at 4° C. in 4% paraformaldehyde until further analysis. Additionally, internal organs (heart, liver, lungs, kidneys, spleen, intestines and thymus) of some mice (n=3 per group) were harvested and stored for toxicity screening.
Analysis of architectural variables of tibiae and vertebrae of mice was performed using the high-resolution X-ray micro-CT system for small animal imaging SkyScan-1072 (SkyScan, Belgium). After scanning, the image data were transferred to a workstation and the proximal tibiae and the fourth lumbar vertebrae (L4) were rendered for 3-D display and calculation of the structural indices (Parfitt et al. 1987) using the SkyScan analysis system (CT-analyser, CT-volume, SkyScan). For trabecular bone parameters in tibiae, transverse CT slices were obtained in the region of interest in the axial direction from the trabecular bone ca. 0.1 mm below the growth plate to the mid-femur. Contours were defined and drawn close to the cortical bone. The trabecular bone was then removed and analyzed separately. Fifty slices (1 mm) at approximately […] distal to the growth plate of the proximal ends of the tibiae were used for analysis. […] The threshold level for the measurements was set at 55 for the analyses. The analysis of the specimens involved the following bone measurements: bone volume fraction (BV/TV, %), trabecular number (TbN), trabecular thickness (TbTh) and trabecular spacing (TbSp).

Kd (hRANK; 25° C., pH 7.4, read-out: binding affinity (Kd) to hRANK) [µM] | kon (hRANK; read-out: association rate constant (kon)) [M⁻¹ s⁻¹] | koff (hRANK; read-out: dissociation rate constant (koff)) [s⁻¹] | Substance | protection against OVX-induced trabecular bone loss (μCT, tibiae) ([1]; 2.5 mg/kg/d s.c.) | trabecular BV/TV and TbN, tibiae ([1]; 2.5 mg/kg/d, vs vehicle) | protection against OVX-induced trabecular bone loss (μCT) ([1]; 10 mg/kg/d s.c.)
20.6 | 13.5 | 0.000278 | ELASYIIITQLG [Pep1, ELASYIIITQLG] | – | – | –
– | – | – | Pep8-NPEG5: Pep8 carrying a linear (PEG)5 polyethylene glycol chain at the N-terminal amino acid ({(PEG)5}-NVLKLCSGE) | almost as effective | significantly increasing | attenuated bone loss in OVX mice to the same extent as treatment with the unpegylated peptide
